Data published in patent publication US8592435B2, “Nitrogen-containing six-membered aromatic ring derivatives and pharmaceutical products containing the same” (Daiichi Sankyo Company, Limited, priority 2007, dated 2013).
Counter-ions that a name gives are not always drawn.

Columns and labels:
spinal cord neurons = experiment: Test Example 3: ability to promote the neurite outgrowth of spinal cord neurons; format: cell-based, Wistar rats; conditions: for Promotion of spinal cord neurite outgrowth (%): Compound Conc. = 0.1 μM, % of control, day 3
Procedure: According to the method of Martin G. Hanson Jr. [J. Neurosci., 1998 Sep. 15; 18(18): 7361-71], the spinal cord region was isolated from 15-day embryos of female Wistar rats and the cells were dispersed using the papain dissociation system. Neurons were collected using 6.8% Metrizamide density gradient and were suspended in 2% FBS+Leibovitz's −15 medium so that the density of the cells will be 2×10^3 cells/well/200 μL. 200 μL of the cell suspension was inoculated on a poly-D-lysine/laminin-coated 96 well plate and the plate was incubated in an incubator at 37° C. Test compounds were added 1 hour after seeding of cells.
On day 3 of the incubation period, neurons were stained with Calcein-AM and the lengths of neurites were determined using IN Cell Analyzer (GE Healthcare Bioscience).
The ability (%) of each test compound to promote neurite outgrowth was calculated from the following equation: The ability to promote neurite outgrowth (%)=[(measurement with a compound of interest)/(measurement of control)]×100
Example Compounds 65, 71, 74, 92, 130 and 135 were used as test compounds and were each added at a concentration of 0.1 μM.
The results are shown in Table 27. bFGF gives a measurement of about 130 in this test.

[1] = system: mixture of human vascular endothelial cells and fibroblasts; experiment: Test Example 2: ability to promote angiogenesis (angiogenesis test kit KZ-1000); format: cell-based; conditions: for activity at 3 µM / activity at 0.3 µM: Homo sapiens, 216 h, lumen length, % of control, day 9, read-out: Promotion of angiogenesis (%); for activity at 3 µM: Compound Conc. = 3 μM; for activity at 0.3 µM: Compound Conc. = 0.3 μM
Procedure: Using an angiogenesis test kit containing a mixture of human vascular endothelial cells and fibroblasts [KZ-1000; Kurabo], the ability of test compounds to promote angiogenesis was evaluated. Each test compound was added on days 1, 4, and 7 of the incubation period. On day 9, cells were immunostained with CD31 and photographed. Control cells were cultured under the same conditions, only without the addition of a test compound, and photographed.
The lumen length of the blood vessel was quantified from the obtained images using an angiogenesis-quantification software. The ability (%) of each test compound to promote angiogenesis was calculated from the following equation: The ability to promote angiogenesis (%)=[(measurement with a compound of interest)/(measurement of control)]×100
Example Compounds shown in Table 26 were used as test compounds.
Since bFGF gives a measurement of about 120 in this test, 120 is used as the threshold to determine whether a given compound has the ability to promote angiogenesis.

hippocampal neurons = experiment: Test Example 1: ability to promote axonal outgrowth; format: cell-based, Wistar rats; conditions: for activity at 3 µM: Compound Conc. = 3 μM
Procedure: According to the method of M. P. Mattson [M. P. Mattson, Brain Res. Rev., 13, 179, (1988)], the hippocampal region was isolated from 18-day embryos of female Wistar rats and the neurons were dispersed using the papain dissociation system. Hippocampal neuron were suspended in 5% Nu-serum+B27 supplement+Neurobasal medium at 5×10^4 cells/well/2 mL. 2 mL of the cell suspension were inoculated on a poly-D-lysine-coated 36φ dish and the neuron were incubated at 37° C. in a 5% CO2 incubator.
On day 3 of the incubation period, 1 mL of the culture medium was replaced with 1 mL of 5% Nu-serum+B27 supplement+Neurobasal medium containing 2 mM AraC. Each test compound was added to the culture on day 3 and day 7 of the incubation period. On day 9, cells were fixed in a 4% paraformaldehyde solution. The nerve axons of the fixed cells were stained with the Rabbit anti-growth-associated protein-43 polyclonal antibody and the stained cells were quantified using Kurabo neuron outgrowth-quantication software.
The ability (%) of each test compound to promote axonal outgrowth was calculated from the following equation: The ability to promote axonal outgrowth (%)=[(measurement with a compound of interest)/(measurement of control)]×100
Example Compounds shown in Table 25 were used as test compounds and were each added at concentrations of 3 μM and 0.3 μM.
Since bFGF gives a measurement of about 120 in this test, 120 is used as the threshold to determine whether a given compound has the ability to promote axonal outgrowth

chemokine receptor CCR3 = molecular target: T1, chemokine receptor CCR3 (Homo sapiens, UniProt P51677); experiment: Affinity to chemokine receptor CCR3; format: binding; conditions: at a concentration of 10 μM
T1 sequence (P51677 1-355): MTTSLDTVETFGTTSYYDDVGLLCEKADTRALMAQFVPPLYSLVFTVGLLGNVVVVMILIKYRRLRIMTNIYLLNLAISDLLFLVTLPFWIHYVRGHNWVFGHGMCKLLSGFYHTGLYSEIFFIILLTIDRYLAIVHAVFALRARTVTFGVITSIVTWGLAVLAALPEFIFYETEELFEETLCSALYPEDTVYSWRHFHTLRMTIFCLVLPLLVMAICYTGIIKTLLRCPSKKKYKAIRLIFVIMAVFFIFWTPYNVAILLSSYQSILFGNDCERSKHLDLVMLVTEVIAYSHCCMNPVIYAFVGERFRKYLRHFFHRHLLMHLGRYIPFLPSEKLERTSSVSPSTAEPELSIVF
Excerpt: Although the compounds of the present invention are novel compounds, compounds having a partly similar skeleton are described, for example, in Published Japanese Translation of PCT International Application No. 2003-507456, WO 01/79170 and WO 00/23076.

[2] = system: critical limb ischemia model (left femoral artery excised); experiment: Test Example 4: lower limb ischemia (critical limb ischemia) model in mice; format: in vivo, Balb/c mice; conditions: oral once daily 0.1 or 1.0 mg/kg for 10 days from femoral artery excision, vs Vehicle
Procedure: According to the method of Ichiro Masaki [Circ Res. 90; 966-973 (2002)], the left femoral artery of Balb/c mice was excised to establish a model of critical limb ischemia (n=29 to 30).
Test compounds used were Example Compounds 65, 92, 114, 130, 135 and 136, each of which was orally administered once daily at a dose of 0.1 mg/kg or 1.0 mg/kg for 10 days starting from the day of femoral artery excision.
The results are shown in FIGS. 1 to 6 in which FIGS. 1, 2, 3, 4, 5 and 6 show the results of Example Compounds 65, 92, 114, 130, 135 and 136, respectively.
In the figures, a thick solid line indicates a Vehicle group, a thin dotted line indicates a group administered 0.1 mg/kg/day of each compound, and a thin solid line indicates a group administered 1.0 mg/kg/day of each compound.
*: P<0.05, **: P<0.01, ***: P<0.001 vs Vehicle by Wilcoxon's test.

[3] = Hippocampal neuron, 216 h, % of control, rat hippocampal neurons, day 9, read-out: Promotion of axonal outgrowth (%)
[4] = reference, concentration not given, used as threshold

Compound	activity at 3 µM [1] [%]	activity at 3 µM (hippocampal neurons; [3]) [%]	also measured
Cc1nc(OCC(=O)N(C)C2CCN(CC3CCCCC3)CC2)nc(C)c1N [Compound 71, 2-(5-amino-4,6-dimethylpyrimidine-2-yloxy)-N-(1-(cyclohexylmethyl)piperidine-4-yl)-N-methylacetamide]	126	140	Promotion of spinal cord neurite outgrowth (%) (spinal cord neurons): 139%
Cc1nc(OCC(=O)N(C)C2CCN(C(=O)c3ccccc3)CC2)nc(C)c1N [Compound 74, 2-(5-amino-4,6-dimethylpyrimidine-2-yloxy)-N-(1-benzoylpiperidine-4-yl)-N-methylacetamide]	136	159	Promotion of spinal cord neurite outgrowth (%) (spinal cord neurons): 125%
Cc1nc(OCC(=O)N(C)C2CCN(Cc3ccc(F)cc3)CC2)nc(C)c1N [Compound 85, 2-(5-amino-4,6-dimethylpyrimidine-2-yloxy)-N-(1-(4-fluorobenzyl)piperidine-4-yl)-N-methylacetamide]	123	140	affinity to chemokine receptor CCR3 (chemokine receptor CCR3): 2.4%
Cc1nc(OCC(=O)N(C)C2CCN(Cc3cc(F)c(F)c(F)c3)CC2)nc(C)c1N [Compound 91, 2-(5-amino-4,6-dimethylpyrimidine-2-yloxy)-N-methyl-N-(1-(3,4,5-trifluorobenzyl)piperidine-4-yl)acetamide]	124	150	affinity to chemokine receptor CCR3 (chemokine receptor CCR3): 18%
Cc1nc(OCC(=O)N(C)C2CCN(C(=O)C3CC3)CC2)nc(C)c1N [Compound 92, 2-(5-amino-4,6-dimethylpyrimidine-2-yloxy)-N-(1-(cyclopropanecarbonyl)piperidine-4-yl)-N-methylacetamide]	153	127	Promotion of spinal cord neurite outgrowth (%) (spinal cord neurons): 120%; survival rate of lower limb [2]: increased survival rate
CNc1c(C)nc(OC(C)C(=O)N(C)C2CCN(Cc3ccccc3)CC2)nc1C (centres unmarked) [Compound 100, N-(1-benzylpiperidine-4-yl)-2-(4,6-dimethyl-5-(methylamino)pyrimidine-2-yloxy)-N-methylpropanamide]	–	128	activity at 0.3 µM [1]: 116%
Cc1nc(OCC(=O)NC2CCN(C(=O)c3ccc(F)cc3)CC2)nc(C)c1N [Compound 102, 2-(5-amino-4,6-dimethylpyrimidine-2-yloxy)-N-(1-(4-fluorobenzoyl)piperidine-4-yl)acetamide]	–	233	affinity to chemokine receptor CCR3 (chemokine receptor CCR3): 0.0%
Cc1cnc(Cl)nc1NCC(=O)N(C)C1CCN(Cc2ccccc2)CC1 [Compound 109, N-(1-benzylpiperidine-4-yl)-2-(2-chloro-5-methylpyrimidine-4-ylamino)-N-methylacetamide]	124	159	affinity to chemokine receptor CCR3 (chemokine receptor CCR3): 16%
Cc1cnc(N)nc1NCC(=O)N(C)C1CCN(Cc2ccccc2)CC1 [Compound 111, 2-(2-amino-5-methylpyrimidine-4-ylamino)-N-(1-benzylpiperidine-4-yl)-N-methylacetamide maleate]	121	–	activity at 0.3 µM (hippocampal neurons; Hippocampal neuron, 216 h, Compound Conc. = 0.3 μM, % of control, rat hippocampal neurons, day 9, read-out: Promotion of axonal outgrowth (%)): 118%
CN(C(=O)Cn1cc(F)c(N)nc1=O)C1CCN(Cc2ccccc2)CC1 [Compound 114, 2-(4-amino-5-fluoro-2-oxopyrimidine-1(2H)-yl)-N-(1-benzylpiperidine-4-yl)-N-methylacetamide]	125	183	survival rate of lower limb [2]: increased survival rate
Cc1cc([N+](=O)[O-])cnc1NCC(=O)N(C)C1CCN(Cc2ccccc2)CC1 [Compound 123, N-(1-benzylpiperidine-4-yl)-N-methyl-2-(3-methyl-5-nitropyridine-2-ylamino)acetamide]	132	131	–
CN(C(=O)COc1nccnc1Cl)C1CCN(Cc2ccccc2)CC1 [Compound 128, N-(1-benzylpiperidine-4-yl)-2-(3-chloropyrazine-2-yloxy)-N-methylacetamide hydrochloride]	–	156	activity at 0.3 µM [1]: 115%
CN(C)c1ccc(OCC(=O)N(C)C2CCN(C(=O)C3CC3)CC2)nn1 [Compound 136, N-(1-(cyclopropanecarbonyl)piperidine-4-yl)-2-(6-(dimethylamino)pyridazine-3-yloxy)-N-methylacetamide]	–	133	survival rate of lower limb [2]: increased survival rate; activity at 0.3 µM [1]: 110%
bFGF: basic fibroblast growth factor (bFGF), a growth factor known to promote angiogenesis; reference that sets the threshold	–	–	Promotion of spinal cord neurite outgrowth, measurement of bFGF in this test (spinal cord neurons; reference, concentration not given): about 130%; Promotion of angiogenesis, measurement of bFGF in this test [1, 4]: about 120%; Promotion of axonal outgrowth, measurement of bFGF in this test (hippocampal neurons; [4]): about 120%
